# Data reported in patent publication US6620792B1, “Pharmaceutical compositions containing monosialoganglioside GM1 or derivative thereof suitable for the treatment of parkinson's disease” (Fidia S.p.A., priority 1992, dated 2003).
# Marks after values point to notes of the source that are not given here.
# Assays:
# Assay type in all cases: in vivo
# [1] = test system: MPTP-treated squirrel monkeys; assay: post-mortem striatal dopamine and metabolite levels by HPLC, squirrel monkeys; conditions: MPTP/GM1, average (S.D.)
# Protocol: (§1) Post-mortem neurochemical examinations of striatal tissue were carried out for the determination of dopamine (DA) and relevant metabolites, e.g. homovanillic acid (HVA), and […] (DOPAC). DA and relevant metabolites striatal levels were quantified by electrochemical […] high pressure liquid chromatography (HPLC) (Schneider J. S., Brain Res., 24, 534, 1990).
# [2] = test system: MPTP-treated cynomolgus monkeys; assay: motor behaviour rating of MPTP-treated cynomolgus monkeys; conditions: GM1 15 mg/kg/day i.m.; p<0.05 vs saline solution
# Protocol: In vivo experiments with GM1 were carried out on 15 (male or female) squirrel monkeys and 4 cynomolgus monkeys.
# The monkeys were administered MPTP saline solution after being anaesthesized i.m. with ketamine HCl 5 mg/kg, as follows:
# 0.35 mg/kg/dose, i.v. (cynomolgus monkeys)
# MPTP was administered every third day until complete manifestation of parkinsonian motor symptomatology was obtained, i.e. akinesia, lack of responsiveness to stimulation, inability to climb, to feed autonomously, and to groom. Thirty points min. (as will be defined in the explanation of FIG. 1) had to be obtained during the 48-60 hours following the last MPTP administration; then animals in pairs were subdivided at random into two treatment groups, i.e. treatment with GM1 or with saline solution. […]
# In particular, the following functions were recorded: overall activity, ability to climb, locomotion/gait, upper and lower limb movements, detailed motor ability, bradykinesia/akinesia, dyskinesia/dystonia, carriage, tremor, balance, grooming ability, sudden immobility during movements, and ability to feed. […]
# FIGS. 1 and 2 are now being considered in detail. […] Columns represent the average points (±S.D.); normal point is 0, MPTP points are the points recorded after the last MPTP injection but prior to the administration of associated GM1-saline solution. […]
# [3] = test system: MPTP-treated cynomolgus monkeys; assay: object grasping test in MPTP-treated cynomolgus monkeys; conditions: GM1 15 mg/kg/day i.m., investigation end
# Protocol: The behaviour and neurologic functions of cynomolgus monkeys were also tested. Said monkeys were also trained to grasp an object, which has proven to be indicative of the motor and cognitive functions of MPTP-treated monkeys (Taylor J. R. et al., Brain, 113, 617, 1990).
# The grasping test was carried out according to Diamond A.: “The development and neural bases of higher cognitive functions”, Annals of the New York Academy of Sciences, vol. 608, A. Diamond Ed. (The New York Academy of Sciences, New York, 637-676, 1990).
# Briefly, monkeys were trained to stretch their arm out of their cage to grasp food (raisins or apple) from a Plexiglas box (15 cm×15 cm×5 cm), open on one side and fastened to a platform allowing side movement and rotation.
# The box open side could happen to be in front of, on the left or on the right side of the monkey. Each experiment consisted of 30 tests. The following events were recorded: successful arm stretchings (food grasped at the first attempt), correct stretchings (food grasped after various attempts), and “barrier” stretchings (i.e. towards the closed side of the box rather than-around the box until reaching the open side of same). Should no food be grasped within 5 minutes, the test was judged to be without response.
# FIG. 2 illustrates the effects produced by MPTP and GM1 on cynomolgus monkeys in the “object grasping” test. […]
# [4] = test system: MPTP-treated cynomolgus monkeys; assay: post-mortem striatal dopamine and metabolite levels by HPLC, cynomolgus monkeys; conditions: MPTP/GM1, average (S.D.)
# Protocol: as §1
substance,measurement,setting,value
monosialoganglioside [GM1],DA striatal level,[1]; Dorsolateral caudatum,8.6(1.2)* ng/mg protein
same,DOPAC striatal level,[1]; Dorsolateral caudatum,3.3(0.9)* ng/mg protein
same,HVA striatal level,[1]; Dorsolateral caudatum,46.2(6.5)* ng/mg protein
same,DA striatal level,[1]; Dorsolateral putamen,4.2(0.8)* ng/mg protein
same,DOPAC striatal level,[1]; Dorsolateral putamen,1.3(0.2)* ng/mg protein
same,HVA striatal level,[1]; Dorsolateral putamen,45.9(6.9)* ng/mg protein
same,DA striatal level,[1]; Ventromedial caudatum,37.4(4.2)* ng/mg protein
same,DOPAC striatal level,[1]; Ventromedial caudatum,12.7(3.6)* ng/mg protein
same,HVA striatal level,[1]; Ventromedial caudatum,56.6(11.9)* ng/mg protein
same,DA striatal level,[1]; Ventromedial putamen,21.9(6.1)* ng/mg protein
same,DOPAC striatal level,[1]; Ventromedial putamen,5.9(1.6)* ng/mg protein
same,HVA striatal level,[1]; Ventromedial putamen,87.5(17.3)* ng/mg protein
same,motor behaviour at the investigation end,[2],almost normal behaviour
same,object grasping test performance,[3],fulfilled the task almost perfectly
same,DA striatal level,[4]; Dorsolateral caudatum,4.4(0.6)* ng/mg protein
same,DOPAC striatal level,[4]; Dorsolateral caudatum,2.7(0.3)* ng/mg protein
same,HVA striatal level,[4]; Dorsolateral caudatum,55.9(12.0)* ng/mg protein
same,DA striatal level,[4]; Dorsolateral putamen,3.7(0.9) ng/mg protein
same,DOPAC striatal level,[4]; Dorsolateral putamen,2.1(0.8)* ng/mg protein
same,HVA striatal level,[4]; Dorsolateral putamen,51.9(9.4)* ng/mg protein
same,DA striatal level,[4]; Ventromedial caudatum,12.9(2.8)* ng/mg protein
same,DOPAC striatal level,[4]; Ventromedial caudatum,6.6(0.7)* ng/mg protein
same,HVA striatal level,[4]; Ventromedial caudatum,60.9(6.9)* ng/mg protein
same,DA striatal level,[4]; Ventromedial putamen,11.2(4.1)* ng/mg protein
same,DOPAC striatal level,[4]; Ventromedial putamen,7.1(3.2)* ng/mg protein
same,HVA striatal level,[4]; Ventromedial putamen,100.3(11.9)* ng/mg protein
